Here are results for 7 compounds from article PMC9972151, “Phase I study of plitidepsin in combination with bortezomib and dexamethasone in patients with relapsed/refractory multiple myeloma” (Cancer Medicine, 2022).

Series [1] has as its system MM. Also on record: method as in PMID 23950178, PMID 28642620, PMID 24429336, PMID 28847998, PMID 27091875. Conditions: named drug in a BTZ and DXM-containing combination; cited from earlier work.
For series [2] the following is noted: patients with MM treated with plitidepsin in other trials; ref unpublished data; cited from earlier work. The source says:
The plitidepsin concentrations found in this study fitted within the 90% prediction interval simulated for patients with MM, although most were above the 50th pe ...

The nature of series [3]: Plitidepsin whole blood pharmacokinetics, non-compartmental. Format: in vivo. The following applies: human, iv, mean (SD); for Cmax: NCA, UPLC-MS/MS. As to the method: (§1) Sixteen samples were collected from each patient to quantify plitidepsin whole blood and BTZ plasma concentrations at baseline and at different times 1 week after the first infusion. In patients treated at the RD, 15 additional samples were taken 1 week after the second plitidepsin infusion.
(§2) Continuous variables were presented with summary statistics and categorical variables in frequency tables. Time‐to‐event variables were calculated using Kaplan–Meier approach. Binomial exact distribution was used to calculate 95% confidence intervals (95%CIs) for categorical variables. Individual PK parameters were tabulated. Statistical analyses were performed using SAS v.9.2, (SAS Institute Inc), and PK non‐compartmental analysis (NCA) was performed using Phoenix WinNonlin v.6.3.
Both drugs (plitidepsin and BTZ) were measured by validated liquid extraction methods followed by ultra-performance liquid chromatography tandem mass-spectrometry detection (Dynakin, Derio, Spain). The calibration range for plitidepsin and BTZ was 0.25-100 ng/mL, and 0.1-5 ng/mL, respectively. The reference for plitidepsin PK results was a population-PK model of plitidepsin (data from 303 patients treated in seven phase II studies and one phase III study), which was used to simulate exposure in whole blood after one 3-hour i.v. infusion of 5.0 mg/m² of plitidepsin in patients with similar characteristics compared to those treated in this study (unpublished data). The reference for BTZ PK results was a phase I study in patients with MM (see Moreau et al (25)).

For series [4], the system named is MM cell lines and primary MM cells. Conditions: cited from earlier work. The source says:
The positive results observed with plitidepsin and BTZ against MM (both as single agents and in combination with DXM), their different mechanisms of action, and the potential synergism of the triple combination warranted the exploration of the efficacy of plitidepsin plus BTZ and DXM in a clinical trial in patients with relapsed and/or refractory MM.

On the set-up of series [5]: method as in Moreau et al[25]. The following applies: BTZ 1.3 mg/m^2 subcutaneously, reference study in MM patients; mean (SD), n = 10; ref Moreau et al[25]; cited from earlier work.
The subject of series [6] is MM. The following applies: cited from earlier work. The source says: Results of the VISTA trial were further supported by those of phase II trials: RETRIEVE (ORR: 40%) and SUMMIT (ORR: 35%, including minimal response while on BTZ treatment), and of the phase III APEX trial (crossover from DXM to BTZ), in which the overall and complete response rates with BTZ were 43% and 9%, respectively.[9], [10], [11]

Series [7] concerns MM. Conditions: phase III VISTA trial; single-agent BTZ re-treatment; cited from earlier work. The source says:
The feasibility of re‐treating MM patients with single‐agent bortezomib (BTZ) was first confirmed in the phase III VISTA trial,[8] where 47% of patients pre‐treated with BTZ‐based regimens during earlier phases of the disease responded again to the drug alone. This was further supported by the results of the phase II RETRIEVE and SUMMIT trials and the phase III APEX trial.[9], [10], [11]

Series [8] can be described thus: BTZ plasma pharmacokinetics, non-compartmental. The format is in vivo, human. Conditions: mean (SD); for C max: NCA, UPLC-MS/MS. The protocol: as §1, §2
Both drugs (plitidepsin and BTZ) were measured by validated liquid extraction methods followed by ultra-performance liquid chromatography tandem mass-spectrometry detection (Dynakin, Derio, Spain). The calibration range for plitidepsin and BTZ was 0.25-100 ng/mL, and 0.1-5 ng/mL, respectively.

[9] abbreviates: phase III APEX trial (crossover from DXM to BTZ).
Where [10] appears, read: Dose level 1 4.0/1.0/40.0, Day 1 of Cycle 1, NCA, n = 6.
[11] abbreviates: Dose level 2 4.0/1.3/40.0, Day 1 of Cycle 1, NCA, n = 3.
The mark [12] stands for this setting: Dose level 3 (RD cohort) 5.0/1.3/40.0, Day 1 of Cycle 1, NCA, n = 9.

“And” between values parts separate entries of the source, which are not always exact repeats. Equal entries are not always repeated. Where two headings read alike, the source gives them in different places. Numbered stars: 1 amine (or outer) side, 2 acyl side, 3 side chain; on linkers, the order of the positions; unused ones are H or OH. Bridge positions count the residues as written; N and C are the ends. Square brackets hold non-standard residues; d marks the D form. Peptide text beside a SMILES is read from it. * marks the point of attachment. X1 = CC[C@H](C)[C@@H](N[*:1])[C@@H](O)CC(=O)O[C@H](C(=O)[C@H](C)C(=O)[*:2])C(C)C; NMeY = CN[C@@H](Cc1ccc(O)cc1)C(=O)O; dNMeL = CN[C@H](CC(C)C)C(=O)O; Pyruvoyl = CC(=O)C(=O)*

Consider `CC1(C)CCC(CN2CCN(c3ccc(C(=O)NS(=O)(=O)c4ccc(NCC5CCOCC5)c([N+](=O)[O-])c4)c(Oc4cnc5[nH]ccc5c4)c3)CC2)=C(c2ccc(Cl)cc2)C1` [venetoclax], for which, in series [1], the “Median DoR” value is given as 9.7 months.
Usually Cmax stands for the maximum level reached in the sampled fluid or tissue. For orientation: clearance means a measure of how efficiently the substance is removed, as volume per time. As usually defined, the half-life is the time in which the quantity being followed falls by half. Consider `CC[C@H](C)[C@H]1NC(=O)[C@@H](NC(=O)[C@@H](CC(C)C)N(C)C(=O)[C@@H]2CCCN2C(=O)C(C)=O)[C@@H](C)OC(=O)[C@H](Cc2ccc(OC)cc2)N(C)C(=O)[C@@H]2CCCN2C(=O)[C@H](CC(C)C)NC(=O)[C@@H](C)C(=O)[C@H](C(C)C)OC(=O)C[C@@H]1O` [Plitidepsin, plitidepsin] (Pyruvoyl-P[dNMeL]T[X1]LP[NMeY](Me); ester 3-C (inferred); N-terminus assumed), for which the “Median CL” value in series [2] is recorded as 4.4 L/h. Further, the Median peripheral volume in series [2] is 513 L. The Cmax in series [3] (Dose level 1 4.0/1.0/40.0, Day 1 of Cycle 1, 3-h i.v. infusion, n = 5) was determined as 83.8 ng/mL; in series [3] (Dose level 2 4.0/1.3/40.0, Day 1 of Cycle 1, 3-h i.v. infusion, n = 3), 117 ng/mL; in series [3] (Dose level 3 (RD cohort) 5.0/1.3/40.0, Day 1 of Cycle 1, 3-h i.v. infusion, n = 9), 71.7 ng/mL. Also, the AUC(0-inf) in series [3] (Dose level 1 4.0/1.0/40.0, Day 1 of Cycle 1, NCA, n = 5, read-out: AUC (time zero to infinity)) was 1260 ng·h/mL; in series [3] (Dose level 2 4.0/1.3/40.0, Day 1 of Cycle 1, NCA, n = 3, read-out: AUC (time zero to infinity)) it was 1420 ng·h/mL; in series [3] (Dose level 3 (RD cohort) 5.0/1.3/40.0, Day 1 of Cycle 1, NCA, n = 9, read-out: AUC (time zero to infinity)) it was 1060 ng·h/mL. In addition, the clearance in series [3] (Dose level 1 4.0/1.0/40.0, Day 1 of Cycle 1, NCA, n = 5, read-out: CL (total clearance) (converted)) was 94.5 mL/min; in series [3] (Dose level 2 4.0/1.3/40.0, Day 1 of Cycle 1, NCA, n = 3, read-out: CL (total clearance) (converted)), 93.2 mL/min; in series [3] (Dose level 3 (RD cohort) 5.0/1.3/40.0, Day 1 of Cycle 1, NCA, n = 9, read-out: CL (total clearance) (converted)), 157 mL/min. The half-life was 40.1 h in series [3] (Dose level 1 4.0/1.0/40.0, Day 1 of Cycle 1, NCA, n = 5, read-out: HL (terminal half-life) (converted)); 46.2 h in series [3] (Dose level 2 4.0/1.3/40.0, Day 1 of Cycle 1, NCA, n = 3, read-out: HL (terminal half-life) (converted)); 44.6 h in series [3] (Dose level 3 (RD cohort) 5.0/1.3/40.0, Day 1 of Cycle 1, NCA, n = 9, read-out: HL (terminal half-life) (converted)). For the same compound, the Vd in series [3] (Dose level 1 4.0/1.0/40.0, Day 1 of Cycle 1, NCA, n = 5, read-out: V ss (volume of distribution at steady-state)) was found to be 169 L; in series [3] (Dose level 1 4.0/1.0/40.0, Day 1 of Cycle 1, NCA, n = 5, read-out: V z (apparent volume of distribution during terminal phase)), 185 L; in series [3] (Dose level 2 4.0/1.3/40.0, Day 1 of Cycle 1, NCA, n = 3, read-out: V ss (volume of distribution at steady-state)), 192 L; in series [3] (Dose level 2 4.0/1.3/40.0, Day 1 of Cycle 1, NCA, n = 3, read-out: V z (apparent volume of distribution during terminal phase)), 394 L; in series [3] (Dose level 3 (RD cohort) 5.0/1.3/40.0, Day 1 of Cycle 1, NCA, n = 9, read-out: V ss (volume of distribution at steady-state)), 341 L; in series [3] (Dose level 3 (RD cohort) 5.0/1.3/40.0, Day 1 of Cycle 1, NCA, n = 9, read-out: V z (apparent volume of distribution during terminal phase)) it was 671 L. Besides, the “In vitro activity of the combination of plitidepsin with BTZ or DXM” value in series [4] is listed as “synergistic activity”.
Turning to `Cc1[nH]c2ccccc2c1CCNCc1ccc(/C=C/C(=O)NO)cc1` [panobinostat], the “Median DoR” value in series [1] is on record as 6.0 months.
Take `CC(C)C[C@H](NC(=O)[C@H](Cc1ccccc1)NC(=O)c1cnccn1)B(O)O` [BTZ, bortezomib]: the “AUC (time zero to infinity)” value in series [5] is given as 151 (53.5) h*μg/L; in series [8] (setting [10]) it was 77.7 (17.9) h*μg/L; in series [8] (setting [11]), 134 (46.8) h*μg/L; in series [8] (setting [12]), 138 (88.6) h*μg/L. Moreover, the C max was 16.5 μg/L and 16.5 (8.4) μg/L in series [5]; 11.0 (7.71) μg/L in series [8] (Dose level 1 4.0/1.0/40.0, Day 1 of Cycle 1, subcutaneous bolus, n = 6); 16.9 (4.21) μg/L in series [8] (Dose level 2 4.0/1.3/40.0, Day 1 of Cycle 1, subcutaneous bolus, n = 3); 17.0 (8.87) μg/L in series [8] (Dose level 3 (RD cohort) 5.0/1.3/40.0, Day 1 of Cycle 1, subcutaneous bolus, n = 9). In addition, the “CL/F (total clearance after extravascular administration)” value in series [5] is 16.6 L/h and 16.6 (5.8) L/h; in series [8] (setting [10]) it was 23.4 (6.79) L/h; in series [8] (setting [11]) it was 17.9 (6.03) L/h; in series [8] (setting [12]), 24.9 (19.2) L/h. Also, the “HL (terminal half-life)” value in series [5] was 65.7 (46.5) h; in series [8] (setting [10]) it was 39.1 (9.22) h; in series [8] (setting [11]), 51.5 (41.4) h; in series [8] (setting [12]) it was 49.0 (17.8) h. Also, the “V z /F (apparent volume of distribution during terminal phase after extravascular administration)” value in series [5] was 1330 L and 1330 (578) L; in series [8] (setting [10]) it was 1308 (431) L; in series [8] (setting [11]), 1208 (52.4) L; in series [8] (setting [12]) it was 1658 (1457) L. In addition, the ORR in series [6] (phase II RETRIEVE trial) is 40%; in series [6] (phase II SUMMIT trial, including minimal response while on BTZ treatment), 35%. Also, in series [6] (setting [9]), the Complete response rate is given as 9%. Besides, in series [6] (setting [9]), the Overall response rate is 43%. In addition, in series [7], the “Patients pre-treated with BTZ-based regimens who responded again to the drug alone” value is 47%.
Consider `Nc1cccc2c1C(=O)N(C1CCC(=O)NC1=O)C2=O` (stereo not drawn) [pomalidomide], for which the “Median DoR” value in series [1] was 7.4 months.
Turning to `Nc1cccc2c1CN(C1CCC(=O)NC1=O)C2=O` (stereo not drawn) [lenalidomide], the “Median DoR” value in series [1] is 8.7 months.
Take elotuzumab: the “Median DoR” value in series [1] is on record as 11.4 months.
